Oligonucleotides are written 5' to 3', each unit as a sugar letter and its base; * is a phosphorothioate linkage, no mark a phosphodiester; rarer units and linkages stand in square brackets, end groups in braces. Plain capitals give the bases only. e = 2'-O-(2-methoxyethyl) (MOE); [5mC] = 5-methylcytosine; d = 2'-deoxy (DNA)
How the values were obtained:
Type in all cases: cell-based
Mouse STAT3 mRNA = assay: Inhibition of mouse STAT3 mRNA expression in BCL1 cells (electroporation; RNase protection/Northern blot); design: % mRNA INHIBITION: dose or concentration left out as unconfirmed; conditions: BCL1 cells electroporated with oligonucleotide, RNA collected 24 hours later; for % mRNA EXPRESSION: control 100%
Protocol: The B lymphoma cell line, BCL1 was obtained from ATCC (Rockville, Md.). BCL1 cells were cultured in RPMI 1640 medium.
BCL1 cells (5×10^6 cells in PBS) were transfected with oligonucleotides by electroporation, at 200V, […]. using a BTX Electro Cell Manipulator 600 (Genetronics, San Diego, Calif.). For an initial screen, BCL1 were electroporated with […] oligonucleotide and RNA collected 24 hours later. Controls without oligonucleotide were subjected to the same electroporation conditions.
Total cellular RNA was isolated using the RNEASY7 kit (Qiagen, Santa Clarita, Calif.). RNAse protection experiments were conducted using RIBOQUANT™ kits and template sets according to the manufacturer's instructions (Pharmingen, San Diego, Calif.). Northern blotting was performed as described in Chiang, M-Y. et al. (J. Biol. Chem., 1991, 266, 18162-18171), using a rat cDNA probe prepared by Xho I/Sal I restriction digest of psvsport-1 plasmid (ATCC, Rockville, Md.). mRNA levels were quantitated using a PhosphorImager (Molecular Dynamics, Sunnyvale, Calif.).

Human STAT3 mRNA [1] = assay: Inhibition of human STAT3 mRNA levels in A549 cells, 75 nM, real-time PCR (Table 13); conditions: 75 nM oligonucleotide with LIPOFECTIN, real-time PCR PPS 199, percent inhibition relative to untreated control cells, average of 2 experiments
Summary of the method: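 A549 cells at 65–75% confluency were transfected in duplicate with 75 nM oligonucleotide plus […] Lipofectin for 4–7 h at 37° C and harvested 16–24 h later. STAT3 mRNA was quantified by real-time RT-PCR with primer-probe set PPS 199 and normalized to RiboGreen total RNA. Inhibition is relative to untreated controls.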

Human STAT3 mRNA [2] = assay: Human STAT3 mRNA dose response in T-24 cells, real-time PCR with PPS 199 (Table 18); conditions: 16 hours, − decrease, + increase relative to untreated control
Excerpt: The transitional cell bladder carcinoma cell line T-24 was obtained from the American Type Culture Collection (ATCC) (Manassas, Va.). T-24 cells were routinely cultured in complete McCoy's 5A basal media (Gibco/Life Technologies, Gaithersburg, Md.) supplemented with 10% fetal calf serum (Gibco/Life Technologies, Gaithersburg, Md.), penicillin 100 units per mL, and streptomycin 100 micrograms per mL (Gibco/Life Technologies, Gaithersburg, Md.). Cells were routinely passaged by trypsinization and dilution when they reached 90% confluence. Cells were seeded into 96-well plates (Falcon-Primaria #3872) at a density of 7000 cells/well for use in RT-PCR analysis.
Control oligonucleotides used were ISIS 129695 ([…], SEQ ID NO: 391), ISIS 129694 ([…] SEQ ID NO: 392), ISIS 129690 ([…] SEQ ID NO: 393), ISIS 129686 ([…] SEQ ID NO: 394), ISIS 116847 ([…], SEQ ID NO: 395) and ISIS 113529 ([…] SEQ ID NO: 396). These are universal scrambled control oligonucleotides.
(§1) T-24 cells were treated with 18.75, 37.5, 75, or 150 nM of oligonucleotide mixed with 3 ug/mL LIPOFECTIN per 100 nM oligonucleotide as described by other examples herein. Untreated cells served as controls. Following 16 hours of treatment, RNA was prepared from cells for subsequent real-time PCR analysis.
Human STAT3 mRNA expression levels were quantitated by real-time PCR using primer probe set PPS 199 and gene target quantities were normalized using Ribogreen as described in other examples herein. A “−” or “+” designation indicates a decrease or increase of STAT 3 mRNA expression, respectively, relative to untreated control cells.

Human STAT3 mRNA [3] = assay: Human STAT3 mRNA dose response in T-24 cells, real-time PCR with PPS 2033 (Table 19); conditions: 16 hours, − decrease, + increase relative to untreated control
Protocol: The dose-response was repeated in T-24 cells and gene target quantities were measured using a different primer-probe set, called PPS 2033 herein. PPS 2033 comprises probes and primers to human STAT3 were designed to hybridize to a human STAT3 sequence, using published sequence information (incorporated herein as SEQ ID NO: XXX). For PPS 2033 the PCR primers were: forward primer: GAGGCCCGCCCAACA (SEQ ID NO: 397) reverse primer: […] (SEQ ID NO: 398) and the PCR probe was: FAM-CTGCCTAGATCGGC-TAMRA (SEQ ID NO: 399) where FAM is the fluorescent reporter dye and TAMRA is the quencher dye. Gene target quantities obtained by real time RT-PCR are normalized by quantifying total RNA using RiboGreen™ (Molecular Probes, Inc. Eugene, Oreg.). Control oligonucleotides used were ISIS 129695 (SEQ ID NO: 391), ISIS 129694 (SEQ ID NO: 392), ISIS 129690 (SEQ ID NO: 393), ISIS 129686 (SEQ ID NO: 394), ISIS 116847 (SEQ ID NO: 395) and ISIS 113529 (SEQ ID NO: 396).
as §1
Human STAT3 mRNA expression levels were quantitated by real-time PCR using primer probe set PPS 2033 and gene target quantities were normalized using Ribogreen as described in other examples herein. A “−” or “+” designation indicates a decrease or increase of STAT 3 mRNA expression, respectively, relative to untreated control cells.

Substance	% mRNA INHIBITION (Mouse STAT3 mRNA) [%]	% mRNA EXPRESSION (Mouse STAT3 mRNA) [%]	% Inhib (inhibition of human STAT 3 mRNA levels) (Human STAT3 mRNA [1]) [%]	Percent change of STAT3 expression using PPS 199 (Human STAT3 mRNA [2]; 18.75 nM oligonucleotide) [%]	Percent change of STAT3 expression using PPS 199 (Human STAT3 mRNA [2]; 37.5 nM oligonucleotide) [%]	Percent change of STAT3 expression using PPS 199 (Human STAT3 mRNA [2]; 75 nM oligonucleotide) [%]	Percent change of STAT3 expression using PPS 199 (Human STAT3 mRNA [2]; 150 nM oligonucleotide) [%]	Percent change of STAT3 expression using PPS 2033 (Human STAT3 mRNA [3]; 18.75 nM oligonucleotide) [%]	Percent change of STAT3 expression using PPS 2033 (Human STAT3 mRNA [3]; 37.5 nM oligonucleotide) [%]	Percent change of STAT3 expression using PPS 2033 (Human STAT3 mRNA [3]; 75 nM oligonucleotide) [%]	Percent change of STAT3 expression using PPS 2033 (Human STAT3 mRNA [3]; 150 nM oligonucleotide) [%]
17136 (antisense eG*eT*eT*e[5mC]*e[5mC]*dA*dC*dT*dG*dA*dG*dC*dC*dA*dT*e[5mC]*e[5mC]*eT*eG*e[5mC]) [compound 17136]	25	75	–	–	–	–	–	–	–	–	–
17137 (antisense eT*eT*e[5mC]*eA*eG*dG*dT*dA*dG*dC*dG*dT*dG*dT*dG*eT*e[5mC]*e[5mC]*eA*eG) [compound 17137]	25	75	–	–	–	–	–	–	–	–	–
17138 (antisense eA*eT*eG*eT*eG*dA*dC*dT*dC*dT*dT*dT*dG*dC*dT*eG*eG*e[5mC]*eT*eG) [compound 17138]	63	37	–	–	–	–	–	–	–	–	–
17139 (antisense e[5mC]*e[5mC]*eA*eA*eG*dA*dG*dA*dT*dT*dA*dT*dG*dA*dA*eA*e[5mC]*eA*e[5mC]*e[5mC]) [compound 17139]	59	41	–	–	–	–	–	–	–	–	–
17140 (antisense eG*e[5mC]*eT*e[5mC]*e[5mC]*dA*dA*dC*dA*dT*dC*dT*dG*dC*dT*eG*e[5mC]*eT*eT*e[5mC]) [compound 17140]	60	40	–	–	–	–	–	–	–	–	–
17141 (antisense eG*e[5mC]*eT*e[5mC]*eT*dT*dC*dA*dT*dC*dA*dG*dT*dC*dA*eG*eT*eG*eT*e[5mC]) [compound 17141]	38	62	–	–	–	–	–	–	–	–	–
17142 (antisense eA*eT*e[5mC]*eT*eG*dA*dC*dA*dC*dC*dC*dT*dG*dA*dG*eT*eA*eG*eT*eT) [compound 17142]	30	70	–	–	–	–	–	–	–	–	–
17143 (antisense eG*e[5mC]*e[5mC]*eA*eG*dA*dC*dC*dC*dA*dG*dA*dA*dG*dG*eA*eG*eA*eA*eG) [compound 17143]	58	42	–	–	–	–	–	–	–	–	–
17144 (antisense e[5mC]*eG*e[5mC]*eT*e[5mC]*dC*dT*dT*dG*dC*dT*dG*dA*dT*dG*eA*eA*eA*e[5mC]*e[5mC]) [compound 17144]	45	55	–	–	–	–	–	–	–	–	–
17145 (antisense eA*eA*e[5mC]*eT*eT*dG*dG*dT*dC*dT*dT*dC*dA*dG*dG*eT*eA*e[5mC]*eG*eG) [compound 17145]	11	89	–	–	–	–	–	–	–	–	–
17146 (antisense eA*eT*e[5mC]*eA*eA*dT*dG*dA*dA*dT*dC*dT*dA*dA*dA*eG*eT*eG*e[5mC]*eG) [compound 17146]	9	91	–	–	–	–	–	–	–	–	–
337284 (antisense e[5mC]*eT*e[5mC]*e[5mC]*eT*dT*dG*dA*d[5mC]*dT*d[5mC]*dT*dT*dG*dA*eG*eG*eG*eT*eT) [compound 337284]	–	–	91	−49	−64	−69	−72	−49	−62	−66	−68
337293 (antisense e[5mC]*eA*eG*e[5mC]*e[5mC]*dA*dG*d[5mC]*dT*d[5mC]*d[5mC]*dT*d[5mC]*dG*dT*e[5mC]*e[5mC]*eG*eT*eG) [compound 337293]	–	–	92	−26	−49	−66	−79	−26	−49	−67	−79
337303 (antisense eA*eG*e[5mC]*eT*eG*dA*dT*dA*dA*dT*dT*d[5mC]*dA*dA*d[5mC]*eT*e[5mC]*eA*eG*eG) [compound 337303]	–	–	85	−44	−61	−69	−72	−47	−59	−69	−71
337344 (antisense eA*eT*e[5mC]*e[5mC]*eA*dT*dG*dA*dT*d[5mC]*dT*dT*dA*dT*dA*eG*e[5mC]*e[5mC]*e[5mC]*eA) [compound 337344]	–	–	90	−27	−47	−63	−77	−17	−37	−60	−76
337384 (antisense eA*eT*eA*e[5mC]*eA*dG*dA*dA*dA*dG*dG*d[5mC]*dT*dA*dT*eG*e[5mC]*eT*eG*eA) [compound 337384]	–	–	89	−40	−55	−71	−80	−41	−59	−69	−80

From patent US20050074879A1, “Antisense oligonucleotide modulation of STAT3 expression” (priority 2000, published 2005)
